Columns and labels:
[1] = Pharmacokinetics of BUP and HBUP after intravenous BUP in rats; assay type: in vivo, rat; conditions: for CL renal: plasma and urine; for AUC: n = 6-7; for Vd: read-out: Vss; for Ae0-24h: urine 0-24 h; for Tmax: median (range)
Method: Male Sprague-Dawley (SD) rats (8 weeks, 260–280 g) were purchased from Nara Biotech Co. (Seoul, Korea). Animals were maintained in cages under controlled conditions under a 12-h dark/light cycle with free access to food and tap water, acclimated for at least five days in the laboratory before experiments, and allocated to a control group or 1,25(OH)2D3-treated group. The 1,25(OH)2D3 dosing solution was prepared by diluting 1,25(OH)2D3 in ethanol with 5 mL of corn oil (2.56 nmol/mL of final concentration). The dosing solution for the control group was prepared but the 1,25(OH)2D3 was omitted. The dosing solutions were administered intraperitoneally to rats at a dose of 1 mL/kg/day (2.56 nmol/kg/day as 1,25(OH)2D3) over four consecutive days. On the fifth day, rats were used for pharmacokinetic study.
In vivo pharmacokinetic animal experiments were accomplished according to the Guide for the Care and Use of Laboratory Animals issued by the National Institute of Health, as described previously. Before starting the animal studies, all experimental protocols were reviewed and approved by the Animal Care and Use Committee of Gachon University (Approval no. GIACUC-R2019020; approved on July 1st, 2019). SD male rats (8–9 weeks, 250–300 g, Nara Biotech Co., Seoul, South Korea) had free access to food and water, acclimatized and maintained in the room under a 12-h light/dark cycle for a week before the study. After pretreatment with 1,25(OH)2D3 for 4 continuous days, the rats in the control and 1,25(OH)2D3 groups were anesthetized with Zoletil® (Vibrac, TX, USA) (10 mg/kg i.m.) and then the femoral vein and artery were cannulated with polyethylene tubing (Clay Adams, NJ, USA) for drug administration and blood sampling, respectively, as described previously. The pharmacokinetic experiment was initiated by drug administration after the rats were recovered from anesthesia. […] Approximately 100 μL of blood was collected via the femoral artery at 0, 1, 5, 15, 30, 60, 120, 180, 240, 360, 480, and 600 min after the drug administration. […] Blood samples were collected at 0, 1, 5, 15, 30, 60, 90, 120, 180, 240, 360, and 480 min later and immediately centrifuged at 14,000× g for 15 min at 4 °C. For compensation of fluid loss, a same volume of saline was intravenously provided after each sample collection. Plasma was then separated from whole blood cells and stored at −20 °C for further analysis. Urine samples were collected 0–4, 4–8, and 8–24 h after drug administration. The collected urine samples were diluted with distilled deionized water (DDW) 20-fold prior to LC-MS/MS analysis. […] The weighted tissues were homogenized on ice by an electric homogenizer following adding 2-fold volume of PBS. The homogenates were stored before LC-MS/MS analysis.
(§1) Moreover, CLNR was calculated to subtract CLR from CL.

[2] = Pharmacokinetics of TOL and HTOL after intravenous TOL in rats; assay type: in vivo, rat; conditions: for Tmax: median (range); for Ae0-24h: urine 0-24 h; for Vd: read-out: Vss
Method: (§2) Male Sprague-Dawley (SD) rats (8 weeks, 260–280 g) were purchased from Nara Biotech Co. (Seoul, Korea). […] The dosing solution for the control group was prepared but the 1,25(OH)2D3 was omitted. […] On the fifth day, rats were used for pharmacokinetic study.
(§3) In vivo pharmacokinetic animal experiments were accomplished according to the Guide for the Care and Use of Laboratory Animals issued by the National Institute of Health, as described previously. […] After pretreatment with 1,25(OH)2D3 for 4 continuous days, the rats in the control and 1,25(OH)2D3 groups were anesthetized with Zoletil® (Vibrac, TX, USA) (10 mg/kg i.m.) and then the femoral vein and artery were cannulated with polyethylene tubing (Clay Adams, NJ, USA) for drug administration and blood sampling, respectively, as described previously. The pharmacokinetic experiment was initiated by drug administration after the rats were recovered from anesthesia. […] Approximately 100 μL of blood was collected via the femoral artery at 0, 1, 5, 15, 30, 60, 120, 180, 240, 360, 480, and 600 min after the drug administration. […] For compensation of fluid loss, a same volume of saline was intravenously provided after each sample collection. Plasma was then separated from whole blood cells and stored at −20 °C for further analysis. […] The collected urine samples were diluted with distilled deionized water (DDW) 20-fold prior to LC-MS/MS analysis. […] The weighted tissues were homogenized on ice by an electric homogenizer following adding 2-fold volume of PBS. The homogenates were stored before LC-MS/MS analysis.
as §1

[3] = Tissue distribution of TOL and HTOL in rats; assay type: in vivo, rat; conditions: for Tissue to plasma concentration ratio (Kp), Liver: n = 4-6
Method: as §2, §3

[4] = biological target: T1, Cyp2c11 (Rattus norvegicus, UniProt P08683); test: Tolbutamide 4-hydroxylation (HTOL formation) in rat liver microsomes; conditions: for CLint: n = 3
T1 sequence (P08683 1-500): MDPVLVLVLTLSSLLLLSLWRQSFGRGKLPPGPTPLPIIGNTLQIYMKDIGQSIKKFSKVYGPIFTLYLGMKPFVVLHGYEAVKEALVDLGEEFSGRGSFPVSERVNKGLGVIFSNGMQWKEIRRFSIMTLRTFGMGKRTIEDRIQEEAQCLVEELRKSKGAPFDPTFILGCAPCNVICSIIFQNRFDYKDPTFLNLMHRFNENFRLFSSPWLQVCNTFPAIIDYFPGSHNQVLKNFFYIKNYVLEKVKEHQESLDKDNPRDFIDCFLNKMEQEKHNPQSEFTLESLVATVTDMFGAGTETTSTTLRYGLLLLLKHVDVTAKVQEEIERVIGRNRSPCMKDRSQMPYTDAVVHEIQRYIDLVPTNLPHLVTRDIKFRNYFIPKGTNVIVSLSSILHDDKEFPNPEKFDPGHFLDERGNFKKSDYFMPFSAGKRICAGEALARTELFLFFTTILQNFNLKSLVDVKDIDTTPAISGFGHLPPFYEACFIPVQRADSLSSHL

[5] = i.v. 5 mg/kg BUP, 1,25(OH)2D3-treated rats
[6] = male, Sprague-Dawley, rat, plasma, iv, 5 mg/kg, i.v. 5 mg/kg BUP, 1,25(OH)2D3-treated rats
[7] = male, Sprague-Dawley, rat, plasma, iv, 5 mg/kg, i.v. 5 mg/kg BUP, control rats
[8] = formed metabolite, i.v. 2 mg/kg TOL, 1,25(OH)2D3-treated rats
[9] = formed metabolite, i.v. 2 mg/kg TOL, control rats
[10] = i.v. 2 mg/kg TOL, 1,25(OH)2D3-treated rats
[11] = 8 h after i.v. 2 mg/kg TOL, 1,25(OH)2D3-treated rats
[12] = 8 h after i.v. 2 mg/kg TOL, control rats
[13] = male, Sprague-Dawley, rat, plasma, iv, 2 mg/kg, i.v. 2 mg/kg TOL, 1,25(OH)2D3-treated rats
[14] = male, Sprague-Dawley, rat, plasma, iv, 2 mg/kg, i.v. 2 mg/kg TOL, control rats

Structure (SMILES): CC(NC(C)(C)C)C(=O)c1cccc(Cl)c1 (stereo not drawn) [BUP, bupropion]
- Renal clearance as portion of total clearance ([1]; 1,25(OH)2D3-treated rats): 1.92%
- Renal clearance as portion of total clearance ([1]; control rats): 0.7%
- CLNR [1, 5]: 53.55 ± 13.02 mL/min/kg
- CLNR ([1]; i.v. 5 mg/kg BUP, control rats): 93.08 ± 13.73 mL/min/kg
- CL renal ([1]; male, Sprague-Dawley, rat, iv, 5 mg/kg, i.v. 5 mg/kg BUP, 1,25(OH)2D3-treated rats): 1.05 ± 0.407 mL/min/kg
- CL renal ([1]; male, Sprague-Dawley, rat, iv, 5 mg/kg, i.v. 5 mg/kg BUP, control rats): 0.662 ± 0.635 mL/min/kg
- MRT [1, 6]: 1.47 h
- clearance [1, 6]: 54.6 ± 13.4 mL/min/kg
- half-life [1, 6]: 2.24 ± 0.812 h
- AUC ([1]; male, Sprague-Dawley, rat, plasma, iv, 5 mg/kg, i.v. 5 mg/kg BUP, 1,25(OH)2D3-treated rats, read-out: AUC (converted)): 1.61 µg·h/mL
- Vd [1, 6]: 5.4 ± 1.87 L/kg
- MRT [1, 7]: 1.19 h
- clearance [1, 7]: 93.6 ± 14.2 mL/min/kg
- half-life [1, 7]: 2.59 ± 0.432 h
- AUC ([1]; male, Sprague-Dawley, rat, plasma, iv, 5 mg/kg, i.v. 5 mg/kg BUP, control rats, read-out: AUC (converted)): 0.906 µg·h/mL
- Vd [1, 7]: 7.82 ± 1.95 L/kg
- Ae0-24h [1, 5]: 1.791 ± 0.031 % of dose
- Ae0-24h ([1]; i.v. 5 mg/kg BUP, control rats): 0.719 ± 0.613 % of dose

Structure (SMILES): C[C@H]1NC(C)(C)CO[C@]1(O)c1cccc(Cl)c1 [HBUP, hydroxybupropion]
- CLR [1, 5]: 0.077 ± 0.031 mL/min/kg
- Cmax [1, 5]: 0.068 ± 0.021 µg/mL
- t1/2 [1, 5]: 3.283 ± 0.903 h
- AUC [1, 5]: 0.3295 ± 0.151 µg·h/mL
- CLR ([1]; i.v. 5 mg/kg BUP, control rats): 0.222 ± 0.124 mL/min/kg
- Cmax ([1]; i.v. 5 mg/kg BUP, control rats): 0.046 ± 0.032 µg/mL
- t1/2 ([1]; i.v. 5 mg/kg BUP, control rats): 2.673 ± 0.627 h
- AUC ([1]; i.v. 5 mg/kg BUP, control rats): 0.07683 ± 0.03163 µg·h/mL
- Tmax [1, 5]: 15 (15–60) min
- Tmax ([1]; i.v. 5 mg/kg BUP, control rats): 15 min
- Ae0-24h [1, 5]: 0.026 ± 0.008 % of dose
- Ae0-24h ([1]; i.v. 5 mg/kg BUP, control rats): 0.015 ± 0.007 % of dose

Structure (SMILES): CCCCNC(=O)NS(=O)(=O)c1ccc(CO)cc1 [HTOL, 4-hydroxytolbutamide]
- AUC [2, 8]: 151.9 ± 52.0 µg·min/mL
- CLR [2, 8]: 0.873 ± 0.134 mL/min/kg
- AUC [2, 9]: 100.8 ± 65.2 µg·min/mL
- CLR [2, 9]: 2.713 ± 0.570 mL/min/kg
- Cmax [2, 10]: 0.207 ± 0.119 µg/mL
- t1/2 [2, 10]: 10.5 ± 8.193 h
- Cmax ([2]; i.v. 2 mg/kg TOL, control rats): 0.167 ± 0.067 µg/mL
- t1/2 ([2]; i.v. 2 mg/kg TOL, control rats): 8.688 ± 8.317 h
- Tmax [2, 10]: 120 (60–240) min
- Tmax ([2]; i.v. 2 mg/kg TOL, control rats): 60 (15–120) min
- Ae0-24h [2, 10]: 5.539 ± 2.305 % of dose
- Ae0-24h ([2]; i.v. 2 mg/kg TOL, control rats): 9.356 ± 0.471 % of dose
- Tissue to plasma concentration ratio (Kp), Brain [3, 11]: 0.019 ± 0.004
- Tissue to plasma concentration ratio (Kp), Heart [3, 11]: 0.252 ± 0.036
- Tissue to plasma concentration ratio (Kp), Kidney [3, 11]: 7.768 ± 0.014
- Tissue to plasma concentration ratio (Kp), Spleen [3, 11]: 0.163 ± 0.008
- Tissue to plasma concentration ratio (Kp), Liver [3, 11]: 0.657 ± 0.129
- Tissue to plasma concentration ratio (Kp), Brain [3, 12]: 0.020 ± 0.008
- Tissue to plasma concentration ratio (Kp), Heart [3, 12]: 0.175 ± 0.013
- Tissue to plasma concentration ratio (Kp), Kidney [3, 12]: 5.335 ± 1.127
- Tissue to plasma concentration ratio (Kp), Spleen [3, 12]: 0.137 ± 0.010
- Tissue to plasma concentration ratio (Kp), Liver [3, 12]: 0.831 ± 0.152

Structure (SMILES): CCCCNC(=O)NS(=O)(=O)c1ccc(C)cc1 [TOL, tolbutamide]
- CLNR [2, 10]: 0.206 ± 0.045 mL/min/kg
- CLNR ([2]; i.v. 2 mg/kg TOL, control rats): 0.189 ± 0.030 mL/min/kg
- clearance [2, 13]: 0.206 ± 0.045 mL/min/kg
- half-life [2, 13]: 9.4 ± 3.46 h
- AUC ([2]; male, Sprague-Dawley, rat, plasma, iv, 2 mg/kg, i.v. 2 mg/kg TOL, 1,25(OH)2D3-treated rats, n = 9-10, read-out: AUC (converted)): 10200 µg·min/mL
- Vd [2, 13]: 0.153 ± 0.0195 L/kg
- MRT [2, 14]: 11 h
- clearance [2, 14]: 0.189 ± 0.027 mL/min/kg
- half-life [2, 14]: 7.71 ± 2.56 h
- AUC ([2]; male, Sprague-Dawley, rat, plasma, iv, 2 mg/kg, i.v. 2 mg/kg TOL, control rats, n = 9-10, read-out: AUC (converted)): 10800 µg·min/mL
- Vd [2, 14]: 0.12 ± 0.0156 L/kg
- CL renal ([2]; male, Sprague-Dawley, rat, urine and plasma, iv, 2 mg/kg): 0.000208 ± 0.000103 mL/min/kg
- Ae0-24h [2, 10]: 0.024 ± 0.016 % of dose
- Ae0-24h ([2]; i.v. 2 mg/kg TOL, control rats): 0.124 ± 0.059 % of dose
- CLint ([4]; RLMs from 1,25(OH)2D3-treated rats): 0.89 ± 0.18 μL/min/mg protein
- CLint ([4]; RLMs from control rats): 3.00 ± 0.63 μL/min/mg protein
- CLint lower in 1,25(OH)2D3-treated rats than in controls ([4]; RLMs, p = 0.0051): 70%

Reference: paper PMC7700423, “Differential Effects of 1α,25-Dihydroxyvitamin D3 on the Expressions and Functions of Hepatic CYP and UGT Enzymes and Its Pharmacokinetic Consequences In Vivo” (Pharmaceutics, 2020)
